Reference: patent US5958885A, “Peptide and formulations thereof inhibiting elevations of triglyceride levels in blood” (Hankyu Kyoei Bussan Co., Ltd., priority 1996, dated 1999)
Residues, ends and D or L forms follow the SMILES beside them.

Assays:
[1] = tested on: pepsin (artificial gastric juice); assay: In vitro stability against digestive enzymes, artificial gastric juice; format: in vitro ADME; conditions: for Ratio of recovery: after pepsin in 0.1 N HCl, 37° C., 4 hr, HPLC peak area, before treatment = 100
Description: (§1) In vitro stability test against digestive enzymes was conducted on the peptide (VVYP) having the amino acid sequence shown in SEQ ID NO: 1 synthesized in Example 2 and peptides Val-Tyr-Pro (VYP) and Val-Thr-Leu (VTL) synthesized in the same manner as described in Example 2.
(§2) Briefly, to 127.5 ml of 0.1 N HCl solution of the above VVYP, VYP or VTL, 22.5 ml of 0.67 mg/ml pepsin (artificial gastric juice) dissolved in 0.1 N HCl was added and reacted at 37° C. for 4 hr. Thereafter, 75 ml of 0.53 mg/ml pancreatin (artificial pancreatic juice) dissolved in […] of 0.5 N borate buffer (pH 8.0) was added thereto and reacted at 37° C. for 2 hr. Samples before digestion with artificial gastric juice, after digestion with artificial gastric juice, and after digestion with artificial pancreatic juice were analyzed under the following conditions.
(§3) Equipment used: HPLC (Waters; LC Modulel)
(§4) Column: SuperPac Pep-S, 5 μm (PHARMACIA K.K.)
(§5) Mobile phase A: 0.1% trifluoroacetic acid B: Acetonitrile-water (50:50, containing 0.1% tri-fluoroacetic acid)
(§6) Flow rate: 0.8 ml/min (VYP, VTL), 0.4 ml/min (VVYP)
(§7) Detection wavelength: 220 nm
(§8) Temperature: room temperature
(§9) Amount applied: 20 μl of 50-fold dilution

serum TG levels = assay: Serum TG elevation inhibiting action, peptide given 1 hr after olive oil; format: in vivo, male ICR mice; conditions: for ID50 (dose which inhibits in vivo 50% of serum TG elevations): olive oil 18 g/kg oral, peptide oral 1 hr later, serum TG another 1 hr later; for Specific Activity (ratio to mg protein): relative to globin proteolysate (GD) = 1, Table 3
Description: Subsequently, serum TG elevation inhibiting action was examined as described below on the peptide (VVYP) having the amino acid sequence shown in SEQ ID NO: 1 synthesized in Example 2, peptides Val-Tyr-Pro (vYP) and Val-Thr-Leu (VTL) synthesized in the same manner as described in Example 2, and the globin proteolysate (GD) obtained in the Reference Example.
Olive oil (18 g/kg body weight) was administered orally to male ICR mice (6 week old, body weight: 25-28 g) which fasted for an overnight. One hour thereafter, an aqueous solution of the above peptide (0.3 ml/mouse) was administered orally. […] A dose-response curve was obtained from the dose of the peptide and inhibition rate of TG, and the 50% inhibition dose ID50 was calculated. Then, the activity of individual peptides was compared with each other.

[2] = tested on: pancreatin (artificial pancreatic juice); assay: In vitro stability against digestive enzymes, artificial gastric juice then artificial pancreatic juice; format: in vitro ADME; conditions: for HPLC peak of the peptide after digestion: after digestion with artificial gastric and pancreatic juices; for Ratio of recovery: after pepsin 37° C. 4 hr, then pancreatin pH 8.0, 37° C., 2 hr, HPLC peak area, before treatment = 100
Description: as §1, §2, §3, §4, §5, §6, §7, §8, §9

male and female ICR mice = assay: Toxicological study, oral administration; format: in vivo; conditions: 10 g/kg body weight or more (maximum possible dose)
Description: The peptide (VVYP) having the amino acid sequence shown in SEQ ID NO: 1 synthesized in Example 2 was administered orally to male and female ICR mice in an amount of 10 g/kg body weight or more (maximum possible dose).

HPLC peak of the peptide after digestion ([1]; after digestion with artificial gastric juice)	SMILES	ID50 (dose which inhibits in vivo 50% of serum TG elevations) (serum TG levels)	Specific Activity (ratio to mg protein) (serum TG levels)	HPLC peak of the peptide after digestion [2]	Ratio of recovery [2]	Ratio of recovery [1]	Death (male and female ICR mice)
disappeared	CC(C)C[C@H](NC(=O)[C@@H](NC(=O)[C@@H](N)C(C)C)[C@@H](C)O)C(=O)O [VTL, Val-Thr-Leu] (H-Val-Thr-Leu-OH)	0.05 mg protein/mouse	448				
	CC(C)[C@H](N)C(=O)N[C@H](C(=O)N[C@@H](Cc1ccc(O)cc1)C(=O)N1CCC[C@H]1C(=O)O)C(C)C [VVYP, Val-Val-Tyr-Pro] (H-VVYP-OH)		6500	remained	101	108	no death occurred
	CC(C)[C@H](N)C(=O)N[C@@H](Cc1ccc(O)cc1)C(=O)N1CCC[C@H]1C(=O)O [VYP, Val-Tyr-Pro] (H-Val-Tyr-Pro-OH)	0.02 mg protein/mouse	1130	remained	109	108	
